Laboratory results as given in US20240158384A1, “CB2 RECEPTOR AGONISTS” (The Board of Trustees of the Leland Stanford Junior …, priority 2020, published 2024).

What was measured:
GPR18 = target: T1, GPR18 (Homo sapiens, UniProt Q14330); test: Off-target activity GPR18 (agonist, antagonist, PAM modes); assay type: cell-based
T1 sequence (Q14330 1-331): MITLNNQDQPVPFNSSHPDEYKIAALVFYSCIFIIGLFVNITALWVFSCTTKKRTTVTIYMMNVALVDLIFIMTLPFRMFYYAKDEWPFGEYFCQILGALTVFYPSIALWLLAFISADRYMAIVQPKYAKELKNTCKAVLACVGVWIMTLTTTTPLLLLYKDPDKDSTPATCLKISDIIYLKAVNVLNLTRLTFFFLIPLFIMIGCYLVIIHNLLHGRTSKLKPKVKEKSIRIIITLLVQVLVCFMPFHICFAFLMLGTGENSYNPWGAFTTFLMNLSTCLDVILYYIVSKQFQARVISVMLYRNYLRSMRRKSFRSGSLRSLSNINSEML
Experimental: (§1) Detailed characterization data was collected for Compound 22. Primary assays were carried out according to Examples 2 and 3, while other assays were carried out according to standard methods.

Caco-2 = test: In vitro permeability Caco-2; assay type: in vitro ADME
Experimental: as §1

human CB2R = human CB2R (Homo sapiens, UniProt P34972); test: cAMP Hunter eXpress GPCR assay, human CB2: inhibition of forskolin-stimulated cAMP in CHO cells; assay type: cell-based; set-up: host or cells: CHO cells
Chain of human CB2R (P34972 whole entry): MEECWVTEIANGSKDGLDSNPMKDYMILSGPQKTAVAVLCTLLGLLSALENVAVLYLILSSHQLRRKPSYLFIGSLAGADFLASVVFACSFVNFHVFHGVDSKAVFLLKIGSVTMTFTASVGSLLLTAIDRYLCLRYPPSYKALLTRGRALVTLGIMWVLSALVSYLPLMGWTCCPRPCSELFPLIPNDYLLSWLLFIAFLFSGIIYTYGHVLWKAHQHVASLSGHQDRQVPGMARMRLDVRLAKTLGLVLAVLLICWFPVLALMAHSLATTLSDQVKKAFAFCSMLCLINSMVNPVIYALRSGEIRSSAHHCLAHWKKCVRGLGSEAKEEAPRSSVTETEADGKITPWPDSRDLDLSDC
Experimental: Briefly, cAMP Hunter eXpress Cells were seeded 18-24 h prior to the in a 96-well tissue culture treated assay plate and incubated in 5% CO2 at 37° C. in a humidified incubator. After removal of cell media, agonist compound and forskolin prepared in cell assay buffer was added and incubated at 37° C. The CB1 cAMP assay was stimulated with 20 μM final concentration of forskolin with 40 minutes incubation time. The CB2 cAMP assay was stimulated with 25 μM final concentration of forskolin with 35 minutes incubation time. The assay was stopped by incubation with antibody and working solution for 1 h at room temperature. After over 3 h incubation at room temperature in the dark with enzyme acceptor solution, chemiluminescence was measured on a CLARIOstar plate reader (BMG LABTECH Inc., Cary, NC, USA).

hERG = hERG (Homo sapiens, UniProt Q12809); test: hERG activity
Chain of hERG (Q12809 whole entry): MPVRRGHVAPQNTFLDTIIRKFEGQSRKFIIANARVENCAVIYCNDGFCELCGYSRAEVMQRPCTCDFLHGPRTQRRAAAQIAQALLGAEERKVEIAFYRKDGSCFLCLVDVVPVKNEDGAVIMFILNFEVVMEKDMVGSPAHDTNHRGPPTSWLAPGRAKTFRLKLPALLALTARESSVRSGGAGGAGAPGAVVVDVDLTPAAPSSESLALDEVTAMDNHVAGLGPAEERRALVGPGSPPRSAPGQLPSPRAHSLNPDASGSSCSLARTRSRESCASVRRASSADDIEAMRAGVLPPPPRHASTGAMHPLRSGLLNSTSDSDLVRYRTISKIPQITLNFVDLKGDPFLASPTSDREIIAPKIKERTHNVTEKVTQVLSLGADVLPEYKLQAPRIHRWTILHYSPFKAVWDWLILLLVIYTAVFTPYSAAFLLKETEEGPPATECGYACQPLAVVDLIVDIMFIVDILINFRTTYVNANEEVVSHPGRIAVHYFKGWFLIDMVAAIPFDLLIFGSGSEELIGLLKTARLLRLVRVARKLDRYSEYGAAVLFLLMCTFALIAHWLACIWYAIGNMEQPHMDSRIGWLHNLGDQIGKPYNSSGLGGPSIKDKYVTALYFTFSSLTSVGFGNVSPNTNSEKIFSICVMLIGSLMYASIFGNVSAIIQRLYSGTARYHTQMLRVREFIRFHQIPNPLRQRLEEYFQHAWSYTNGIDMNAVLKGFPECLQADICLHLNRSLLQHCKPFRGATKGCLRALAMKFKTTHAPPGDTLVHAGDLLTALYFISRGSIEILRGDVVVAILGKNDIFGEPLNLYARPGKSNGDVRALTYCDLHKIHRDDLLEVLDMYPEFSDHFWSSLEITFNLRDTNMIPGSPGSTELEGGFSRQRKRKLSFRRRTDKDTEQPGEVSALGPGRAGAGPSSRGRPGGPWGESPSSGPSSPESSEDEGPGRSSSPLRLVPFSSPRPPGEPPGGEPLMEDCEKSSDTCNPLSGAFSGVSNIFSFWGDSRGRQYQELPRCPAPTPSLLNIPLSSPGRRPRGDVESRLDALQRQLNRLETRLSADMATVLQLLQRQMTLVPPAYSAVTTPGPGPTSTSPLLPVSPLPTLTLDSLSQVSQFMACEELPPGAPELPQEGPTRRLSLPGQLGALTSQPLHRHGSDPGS
Experimental: as §1

GPR119 = target: T2, GPR119 (Homo sapiens, UniProt Q8TDV5); test: Off-target activity GPR119 (agonist, antagonist, PAM modes); assay type: cell-based
T2 sequence (Q8TDV5 1-335): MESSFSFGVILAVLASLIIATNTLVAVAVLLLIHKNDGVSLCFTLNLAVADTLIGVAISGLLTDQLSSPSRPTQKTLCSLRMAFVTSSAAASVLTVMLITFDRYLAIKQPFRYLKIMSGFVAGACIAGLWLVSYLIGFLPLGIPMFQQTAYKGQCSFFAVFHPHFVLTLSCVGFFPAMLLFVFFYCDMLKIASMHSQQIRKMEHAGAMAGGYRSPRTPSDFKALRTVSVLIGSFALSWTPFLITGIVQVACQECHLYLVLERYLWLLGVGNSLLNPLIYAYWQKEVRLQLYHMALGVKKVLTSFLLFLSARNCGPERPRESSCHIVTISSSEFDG
Experimental: as §1

Neurons/Microglia = test: Cytotoxicity (Neurons/Microglia); assay type: cell-based
Experimental: as §1

Plasma protein binding = assay type: in vitro ADME
Experimental: as §1

[1] = test system: spontaneous DA transients in NAc; test: GRAB-DA fiber photometry, spontaneous DA transients; assay type: in vivo, mouse
Experimental: For this study, a probe was implanted into the nucleus accumbens (NAc) (FIG. 11A). Following baseline measurements, mice were dosed with vehicle or Compound 22 (10 mg/kg, i.p) followed 40 min later by a single dose of AMPH (2 mg/kg, i.p.). Samples were collected for 2 hr post-dosing. Extracellular dopamine (DA) levels in the dialysate were quantified by HPLC with electrochemical detection (FIG. 11B). […] Compound 22 modulates both spontaneous and reward-related DA release. To confirm these findings in parallel experiments, GPCR-activation based-DA (GRAB-DA) was used, which is a human D2R-GFP chimera sensor that produces fluorescence changes reliably and with sub-second kinetics in response to extracellular DA concentration changes in behaving animals (Sun et al. Cell 2018; 174(2):481-96.e19). Mice were injected with an adeno-associated virus (AAV) carrying GRAB-DA into the (NAc) (FIG. 11C) and allowed to recover for −2 weeks before fiber photometry experiments were performed. In the first pilot experiment, baseline DA release were recorded for 5 min before mice (n=3) were injected with either Compound 22 or vehicle and then recording was continued for 45 min. The rate of spontaneous DA transients was compared in the pre-injection (0-5 min) vs post-injection (35-50 min) periods; there was a significant time x drug interaction: F(1,4)=11.91, P=0.026.

## CC(C)(CO)c1cc(NC(=O)N2CCCN2c2ccc(C(F)(F)F)cc2)no1 [Compound 22, N-(5-(1-hydroxy-2-methylpropan-2-yl)isoxazol-3-yl)-2-(4-(trifluoromethyl)phenyl)pyrazolidine-1-carboxamide]
GPR18
  EC50: > 10 µM
  IC50: > 10 µM
Caco-2
  In vitro permeability: High
Human CB2R; Activity in primary assay: CB2 EC50, Table 6, hCB2 cAMP, agonist mode, mean of n = 3-5 expts on ≥2 batches
  EC50: 0.067 µM
Human CB2R; CB1/CB2 cAMP
  Selectivity (related family): 150 fold selectivity
Human CB2R; CB2 cAMP/CB2 beta-arrestin
  Selectivity (pathway): 9 fold selectivity
Human CB2R; cAMP assay, CP-55940 as full agonist control
  CB2 agonist character (in words): potent agonists of CB2
Human CB2R; cAMP assays hCB1 vs hCB2
  Selectivity for CB2 over CB1 (in words): selective for CB2 over CB1
hERG
  IC50: > 10 µM
GPR119
  EC50: > 10 µM
  IC50: > 10 µM
Neurons/Microglia
  Cytotoxicity (Neurons/Microglia): not toxic
Plasma protein binding
  fraction unbound: 0.0631
[1]; before and after injection
  Shape of the spontaneous DA transients: widening the curve
[1]; pre-injection (0-5 min) vs post-injection (35-50 min), n=3
  Rate of spontaneous DA transients: reduced the rate of spontaneous transients
